Measurements: patent publication US5466689A, “Morpholine derivatives and their use” (Takeda Chemical Industries, Ltd., priority 1993, dated 1995)

Key:
Substance-P = test: Action of Substance-P for inhibiting biting response by its administration at subarachnoid space; assay type: in vivo, Jcl:ICR mice; settings: mice; dosage 10 μg/mouse; SP 10 ng/5 μl/mouse at subarachnoid space; bitings counted for one minute
Procedure: Action of Substance-P for inhibiting biting response by its administration at subarachnoid space
Five-week old male Jcl:ICR mice (10 animals per group) were employed. Dorsal cutaneous incisions were made under anesthesia at least one hour before the experiments. Substance-P (SP) was administered in an amount of 10 ng/5 μl/mouse at the subarachnoid space of the spinal cord. Then the test animals started to bite themselves at the abdomen alternately. The number of bitings was counted for one minute immediately after the SP administration. The values thus obtained were made indexes of pseudo pain reflexes caused by SP.
Test drugs were dissolved in a solution (Tween 80:ethanol:physiological saline=20:10:70) together with a given amount of SP. The solutions thus prepared were administered to test animals. In the case of oral administration, 5% suspension of gum arabica was employed, which was administered at 30 minutes before the SP administration.
The inhibition rate (%) of each sample was calculated by the following formula. Inhibition rate (%)=(number of counts in the control group-numberof counts in each sample)/(number of counts in the control group)×100.
And, 50% inhibition dose (ID50) was calculated from the primary linear regression line of dose-dependent curve.

Writhing = test: Acetic acid-writhing method; assay type: in vivo, Slc:ICR mice; settings: mice, 0.6% acetic acid i.p. 30 min later, writhing during 20 minutes
Procedure: Acetic acid-writhing method
Male Slc:ICR mice of four-week old (10 animals per group) were employed. Test compounds were orally administered. Thirty minutes later, purified water containing 0.6% acetic acid was injected intraperitoneally (0.1 ml/10 g body weight). Writhing shown by the test animals during 20 minutes was observed on individual animals.
On each test animal, the inhibition rate against the average response times in the control group was calculated. The test compound was administered as a 5% suspension of gum arabica.

[1] = acute toxicity (LD50), oral, rats; settings: rat, in vivo, orally administered to rats
From the text: Therefore, the compounds of this invention and their salts can be used for prophylaxis or therapy of diseases including pain due to bone diseases (arthritis, rheumatic fever, osteoporosis), pain induced by cancer or the like, lumbago, postoperative pain, neuralgia, pain induced by inflammatory diseases, pain caused by tooth extraction, tooth-ache and pain due to burn trauma, as well as neurosis (e.g. anxiety neurosis, depression, mental disorder), somnipathy or the like. Since the compounds of this invention act on a neurotransmitting system such as dopamine or norepinephrine, they can be used also as prophylactic and therapeutic drugs for circulatory diseases (e.g. hypertension).

SMILES | Inhibition rate (%), antagonistic action to Substance-P (biting response) (Substance-P) [%] | Inhibition rate (%), analgesic action (writhing) (Writhing; 12.5 mg/kg,p.o.) [%] | Inhibition rate (%), analgesic action (writhing) (Writhing; 25 mg/kg,p.o.) [%] | LD50 [1] [mg/kg]
CCN1CCO[C@]2(C)c3cccc4[nH]cc(c34)C[C@@H]12 (relative stereo) [Example 8, Trans-4,6,6a,8,9,10a-hexahydro-7-ethyl-10a-methyl-7H-indolo[3,4-gh][1,4]benzoxazine] | 65 | 61 |  | 
C=C[C@]12OCCN(CC)[C@@H]1Cc1c[nH]c3cccc2c13 (relative stereo) [Example 1, Trans-4,6,6a,8,9,10a-hexahydro-7-ethyl-10a-vinyl-7H-indolo[3,4-gh][1.4]benzoxazine] | 80 |  |  | 
CCN1CCO[C@]2(C)c3c(OC)ccc4[nH]cc(c34)C[C@@H]12 (relative stereo) [Example 2, Trans-4,6,6a,8,9,10a-hexahydro-7-ethyl-1-methoxy-10a-methyl-7H-indole[3,4-gh][1.4]benzoxazine] | 100 |  | 99 | ≥ 100
